Experimental data reported in article PMC7715017, “Conjugation of Synthetic Polyproline Moietes to Lipid II Binding Fragments of Nisin Yields Active and Stable Antimicrobials” (Frontiers in Microbiology, 2020).
Values after ≈ are worked out from the molar mass of the structure shown. Like-named read-outs stand apart in the source and are kept apart here. Non-standard residues stand in square brackets, D forms with d. Residues, ends and D or L forms follow the SMILES beside them. *: point of attachment. Oic = O=C(O)[C@@H]1C[C@@H]2CCCC[C@@H]2N1; Pent4ynoyl = C#CCCC(=O)*

Columns and labels:
[1] = tested on: Enterococcus faecium LMG 16003 (vancomycin resistant, VRE)
Experimental: (§1) All samples were resuspended in 0.05% aqueous acetic acid solution and the peptide amount was quantified by HPLC according to Schmitt et al. ([Schmitt et al., 2019]). The indicator strains MW2-MRSA, Enterococcus faecium, Listeria monocytogenes, and Lactococcus lactis were first streaked on GM17 plate and cultured overnight. The peptide samples were diluted with 0.05% acetic acid to a concentration of 40–320 μM (depending on the estimated activity of the peptide and the strain tested). The MIC value test was performed according to [Wiegand et al. (2008)].
(§2) M. flavus was used as the indicator strain for the agar well diffusion assay, and 0.15 nmol of each sample was added to each well (Figure 3). […] Antimicrobial activity of all compounds was tested by growth inhibition assays against two clinically relevant Gram-positive pathogens, i.e., methicillin resistant S. aureus and vancomycin resistant E. faecium, as well as L. monocytogenes, and L. lactis. […] For this experiment, an activity test was performed against the NSR producing strain L. lactis NZ9000 (pNSR).

[2] = tested on: MW2-MRSA (Staphylococcus aureus MW2, methicillin resistant)
Experimental: as §1, §2

[3] = tested on: Listeria monocytogenes LMG 10470
Experimental: as §1, §2

[4] = tested on: L. lactis NZ9000 (pEmpty); settings: broth microdilution (Wiegand et al. 2008); samples in 0.05% acetic acid; strain with empty plasmid
Experimental: as §1, §2

[5] = MW2- ( MW2, methicillin resistant)
[6] = broth microdilution (Wiegand et al. 2008), samples in 0.05% acetic acid, quantified by HPLC

| SMILES | MIC value, E. faecium ([1]; LMG 16003) | MIC value, MW2-MRSA [2, 5] | MIC value, L. monocytogenes ([3]; LMG 10470) | MIC value, L. lactis NZ9000 (pEmpty) [4] | MIC value, E. faecium [1, 6] | MIC value, MW2-MRSA [2, 6] | MIC value, L. monocytogenes [3, 6] |
| --- | --- | --- | --- | --- | --- | --- | --- |
| C#CCCC(=O)N1[C@H](C(=O)N2[C@H](C(=O)N3[C@H](C(=O)N4[C@H](C(=O)N5[C@H](C(=O)N6[C@H](C(=O)O)C[C@@H]7CCCC[C@@H]76)C[C@@H]6CCCC[C@@H]65)C[C@@H]5CCCC[C@@H]54)C[C@@H]4CCCC[C@@H]43)C[C@@H]3CCCC[C@@H]32)C[C@@H]2CCCC[C@@H]21 [O6] (Pent4ynoyl-[Oic][Oic][Oic][Oic][Oic][Oic]-OH) | >320 µM | >320 µM | >320 µM | – | – | – | – |
| C=C1NC(=O)[C@H]([C@@H](C)CC)NC(=O)[C@H](NC(=O)/C(=C/C)NC(=O)[C@@H](N)[C@@H](C)CC)CSC[C@@H](C(=O)N[C@H]2C(=O)N3CCC[C@H]3C(=O)NCC(=O)N[C@H](C(=O)N[C@@H](CCCCN)C(=O)NCCCn3cc(CCC(=O)N4[C@H](C(=O)N5[C@H](C(=O)N6[C@H](C(=O)N7[C@H](C(=O)N8[C@H](C(=O)N9[C@H](C(=O)N%10[C@H](C(=O)N%11[C@H](C(=O)N%12[C@H](C(=O)O)C[C@@H]%13CCCC[C@@H]%13%12)C[C@@H]%12CCCC[C@@H]%12%11)C[C@@H]%11CCCC[C@@H]%11%10)C[C@@H]%10CCCC[C@@H]%109)C[C@@H]9CCCC[C@@H]98)C[C@@H]8CCCC[C@@H]87)C[C@@H]7CCCC[C@@H]76)C[C@@H]6CCCC[C@@H]65)C[C@@H]5CCCC[C@@H]54)nn3)CS[C@H]2C)NC(=O)[C@H](CC(C)C)NC1=O [Nisin AB + O9] | – | – | – | 5.0 μM | – | – | – |
| C=C1NC(=O)[C@H]([C@@H](C)CC)NC(=O)[C@H](NC(=O)/C(=C/C)NC(=O)[C@@H](N)[C@@H](C)CC)CSC[C@@H](C(=O)N[C@H]2C(=O)N3CCC[C@H]3C(=O)NCC(=O)N[C@H](C(=O)N[C@@H](CCCCN)C(=O)NCCCn3cc(CCC(=O)N4[C@H](C(=O)N5[C@H](C(=O)N6[C@H](C(=O)O)C[C@@H]7CCCC[C@@H]76)C[C@@H]6CCCC[C@@H]65)C[C@@H]5CCCC[C@@H]54)nn3)CS[C@H]2C)NC(=O)[C@H](CC(C)C)NC1=O [Nisin AB + O3] | – | – | – | >40 μM | – | – | – |
| C=C1NC(=O)[C@H]([C@@H](C)CC)NC(=O)[C@H](NC(=O)/C(=C/C)NC(=O)[C@@H](N)[C@@H](C)CC)CSC[C@@H](C(=O)N[C@H]2C(=O)N3CCC[C@H]3C(=O)NCC(=O)N[C@H](C(=O)N[C@@H](CCCCN)C(=O)NCCCn3cc(CCC(=O)N4[C@H](C(=O)N5[C@H](C(=O)N6[C@H](C(=O)N7[C@H](C(=O)N8[C@H](C(=O)N9[C@H](C(=O)O)C[C@@H]%10CCCC[C@@H]%109)C[C@@H]9CCCC[C@@H]98)C[C@@H]8CCCC[C@@H]87)C[C@@H]7CCCC[C@@H]76)C[C@@H]6CCCC[C@@H]65)C[C@@H]5CCCC[C@@H]54)nn3)CS[C@H]2C)NC(=O)[C@H](CC(C)C)NC1=O [Nisin AB + O6] | – | – | – | 20 μM | – | – | – |
| C=C1NC(=O)[C@H]([C@@H](C)CC)NC(=O)[C@H](NC(=O)/C(=C/C)NC(=O)[C@@H](N)[C@@H](C)CC)CSC[C@@H](C(=O)N[C@H]2C(=O)N3CCC[C@H]3C(=O)NCC(=O)N[C@H](C(=O)N[C@@H](CCCCN)C(=O)NCCCn3cc(CCC(=O)N4[C@H](C(=O)N5[C@H](C(=O)N6[C@H](C(=O)N[C@@H](CCCCN)C(=O)N[C@@H](CCCCN)C(=O)N[C@@H](CCCCN)C(=O)O)C[C@@H]7CCCC[C@@H]76)C[C@@H]6CCCC[C@@H]65)C[C@@H]5CCCC[C@@H]54)nn3)CS[C@H]2C)NC(=O)[C@H](CC(C)C)NC1=O [Nisin AB + O3K3] | – | – | – | >40 μM | – | – | – |
| C=C1NC(=O)[C@H]([C@@H](C)CC)NC(=O)[C@H](NC(=O)/C(=C/C)NC(=O)[C@@H](N)[C@@H](C)CC)CSC[C@@H](C(=O)N[C@H]2C(=O)N3CCC[C@H]3C(=O)NCC(=O)N[C@H](C(=O)N[C@@H](CCCCN)C(=O)N[C@H]3C(=O)NCC(=O)N[C@@H](C)C(=O)N[C@@H](CC(C)C)C(=O)N[C@@H](CCSC)C(=O)NCC(=O)N[C@H](C(=O)N[C@@H](CC(N)=O)C(=O)NCCCn4cc(CCC(=O)N5[C@H](C(=O)N6[C@H](C(=O)N7[C@H](C(=O)N8[C@H](C(=O)N9[C@H](C(=O)N%10[C@H](C(=O)N%11[C@H](C(=O)N%12[C@H](C(=O)N%13[C@H](C(=O)O)C[C@@H]%14CCCC[C@@H]%14%13)C[C@@H]%13CCCC[C@@H]%13%12)C[C@@H]%12CCCC[C@@H]%12%11)C[C@@H]%11CCCC[C@@H]%11%10)C[C@@H]%10CCCC[C@@H]%109)C[C@@H]9CCCC[C@@H]98)C[C@@H]8CCCC[C@@H]87)C[C@@H]7CCCC[C@@H]76)C[C@@H]6CCCC[C@@H]65)nn4)CS[C@H]3C)CS[C@H]2C)NC(=O)[C@H](CC(C)C)NC1=O [Nisin ABC + O9] | 10 µM | >80 µM | 40 µM | 5.0 μM | – | – | – |
| C=C1NC(=O)[C@H]([C@@H](C)CC)NC(=O)[C@H](NC(=O)/C(=C/C)NC(=O)[C@@H](N)[C@@H](C)CC)CSC[C@@H](C(=O)N[C@H]2C(=O)N3CCC[C@H]3C(=O)NCC(=O)N[C@H](C(=O)N[C@@H](CCCCN)C(=O)N[C@H]3C(=O)NCC(=O)N[C@@H](C)C(=O)N[C@@H](CC(C)C)C(=O)N[C@@H](CCSC)C(=O)NCC(=O)N[C@H](C(=O)N[C@@H](CC(N)=O)C(=O)O)CS[C@H]3C)CS[C@H]2C)NC(=O)[C@H](CC(C)C)NC1=O [Nisin ABC, reference compound] | 40 µM (≈ 75.2 µg/mL) | 40 µM (≈ 75.2 µg/mL) | 40 µM (≈ 75.2 µg/mL) | 5.0 μM | – | – | – |
| C=C1NC(=O)[C@H]([C@@H](C)CC)NC(=O)[C@H](NC(=O)/C(=C/C)NC(=O)[C@@H](N)[C@@H](C)CC)CSC[C@@H](C(=O)N[C@H]2C(=O)N3CCC[C@H]3C(=O)NCC(=O)N[C@H](C(=O)N[C@@H](CCCCN)C(=O)N[C@H]3C(=O)NCC(=O)N[C@@H](C)C(=O)N[C@@H](CC(C)C)C(=O)N[C@@H](CCSC)C(=O)NCC(=O)N[C@H](C(=O)N[C@@H](CC(N)=O)C(=O)NCCCn4cc(CCC(=O)N5[C@H](C(=O)N6[C@H](C(=O)N7[C@H](C(=O)O)C[C@@H]8CCCC[C@@H]87)C[C@@H]7CCCC[C@@H]76)C[C@@H]6CCCC[C@@H]65)nn4)CS[C@H]3C)CS[C@H]2C)NC(=O)[C@H](CC(C)C)NC1=O [Nisin ABC + O3] | 20 µM | >80 µM | >80 µM | 5.0 μM | – | – | – |
| C#CCCC(=O)N1[C@H](C(=O)N2[C@H](C(=O)N3[C@H](C(=O)N4[C@H](C(=O)N5[C@H](C(=O)N6[C@H](C(=O)N7[C@H](C(=O)N8[C@H](C(=O)N9[C@H](C(=O)O)C[C@@H]%10CCCC[C@@H]%109)C[C@@H]9CCCC[C@@H]98)C[C@@H]8CCCC[C@@H]87)C[C@@H]7CCCC[C@@H]76)C[C@@H]6CCCC[C@@H]65)C[C@@H]5CCCC[C@@H]54)C[C@@H]4CCCC[C@@H]43)C[C@@H]3CCCC[C@@H]32)C[C@@H]2CCCC[C@@H]21 [O9, Pentynyl-(Oic)9-OH] (Pent4ynoyl-[Oic][Oic][Oic][Oic][Oic][Oic][Oic][Oic][Oic]-OH) | >320 µM | >320 µM | >320 µM | – | – | – | – |
| C#CCCC(=O)N1[C@H](C(=O)N2[C@H](C(=O)N3[C@H](C(=O)O)C[C@@H]4CCCC[C@@H]43)C[C@@H]3CCCC[C@@H]32)C[C@@H]2CCCC[C@@H]21 [O3] | >320 µM | >320 µM | >320 µM | – | – | – | – |
| C#CCCC(=O)N1[C@H](C(=O)N2[C@H](C(=O)N3[C@H](C(=O)N[C@@H](CCCCN)C(=O)N[C@@H](CCCCN)C(=O)N[C@@H](CCCCN)C(=O)O)C[C@@H]4CCCC[C@@H]43)C[C@@H]3CCCC[C@@H]32)C[C@@H]2CCCC[C@@H]21 [O3K3] (Pent4ynoyl-[Oic][Oic][Oic]KKK-OH) | >160 µM | >160 µM | >160 µM | >160 μM | – | – | – |
| C#CCCC(=O)N1[C@H](C(=O)N2[C@H](C(=O)N3[C@H](C(=O)N4[C@H](C(=O)N5[C@H](C(=O)N6[C@H](C(=O)N[C@@H](CCCCN)C(=O)N[C@@H](CCCCN)C(=O)N[C@@H](CCCCN)C(=O)O)C[C@@H]7CCCC[C@@H]76)C[C@@H]6CCCC[C@@H]65)C[C@@H]5CCCC[C@@H]54)C[C@@H]4CCCC[C@@H]43)C[C@@H]3CCCC[C@@H]32)C[C@@H]2CCCC[C@@H]21 [O6K3] (Pent4ynoyl-[Oic][Oic][Oic][Oic][Oic][Oic]KKK-OH) | – | – | – | >80 μM | >80 µM | >80 µM | >80 µM |
